`CCCCCCCCC1(CCCCCCCC)c2cc(N)ccc2-c2ccc(N)cc21` and `CCCCCCCCN(CCCCCCCC)C(=O)Nc1ccccc1CCc1cc(C(C)(C)C)c(O)c(C(C)(C)C)c1` cannot be ordered by melting point: 58 to 63 °C for the first, 55 to 60 °C for the second.

Compared with `CCCCCC(=O)NN`, `CCCC(=O)c1ccc(OCCC(=O)O)c(Cl)c1Cl` is higher in melting point: 72.5 to 73.9 °C for the first, 138 to 139 °C for the second.

First: CC(NC(=O)c1cc2ccccc2[nH]1)C(=O)O (racemic)
Second: O=C(O)CC=CCC(=O)NCCc1ccccc1
The melting point of the first is higher: 240 °C for the first, 101 to 103 °C for the second.

`CN(C(=O)c1cccc(C=O)c1)c1cccc(F)c1` and `CN(C)C(=O)c1cc2ccccc2c(-c2ccccc2)n1` cannot be ordered by melting point: 115 to 119 °C for the first, 114 to 116 °C for the second.

First: COc1nc2c(cc1NC(=S)N1CCN(c3cc(C)cc(C)c3)CC1)CCC2
Second: COc1ccc(C)cc1NC(=O)Nc1ccc(N2CCNCC2)cc1
The melting point of the first is higher: 159 to 161 °C for the first, 140 °C for the second.

First: Nc1cc(F)c2c(c1)Cc1cc(F)ccc1-2
Second: Cc1cc(Cl)ccc1-c1cc(F)cc2c1NC(CN)CO2 (stereo not given)
The melting point of the first is higher: 119 to 120 °C for the first, 90 °C for the second.

Compared with `CC1CN(c2ccccc2)N=C1NC(=O)C(F)(F)F` (stereo not given), `COC(=O)CCCc1ccc(S(=O)(=O)Nc2ccccc2)cn1` is lower in melting point: 142 to 144 °C for the first, 79 to 80 °C for the second.

First: Cc1c(C(=O)O)cn(-c2ccnc3ccccc23)c1C
Second: O=C(Nc1ccccn1)c1nnc2ccccc2c1O
The melting point of the first is lower: 238 °C for the first, 341 to 343 °C for the second.

First: CC(C)(C)c1nnc(N=C2SC[C@@H]3Cc4ccccc4CN23)s1
Second: CC(C)CNc1c([N+](=O)[O-])c2nnnn2c2ccccc12
The melting point of the first is lower: 137 °C for the first, 152 to 154 °C for the second.

First: CC1(C)CC(OC(=O)CCCCCCCCC(=O)OC2CC(C)(C)PC(C)(C)C2)CC(C)(C)P1 (stereo not given)
Second: CN1CCN(c2ccc(C(=O)NCCCCCCCCCCCO[N+](=O)[O-])cn2)CC1
The melting point of the first is lower: 58 to 63 °C for the first, 95 to 96 °C for the second.

Compared with `S=C(Cc1ccccc1)c1ccccc1`, `O=C1CC[C@@H](c2ccccc2)[C@H](c2ccccc2)N1` (relative stereo) is higher in melting point: 52 to 53 °C for the first, 160 to 164 °C for the second.

Compared with `CCOC(=O)c1c(=O)c2cc(F)c(Cl)cc2n2c(CN(C)C)csc12`, `CCOC(=O)OC1C(=O)N(CCN(C)C)c2ccc3ccccc3c2SC1c1ccc(OC)cc1` (stereo not given) is lower in melting point: 276 °C for the first, 168 to 169 °C for the second.

First: C=C1C[C@@H]2[C@H](CC[C@]3(C)C(=O)CC[C@@H]23)[C@@]2(C)CCC(=O)C(OC)=C12
Second: CCOC(C)OC(C)(C)CCCC(C)C1CCC2C3CC=C4CC(O)CC(O)C4(C)C3CCC12C (stereo not given)
The melting point of the first is higher: 196 to 198 °C for the first, 128 to 130 °C for the second.

First: COc1ccc(OCC2CN(C(C)CO)C(=O)O2)cc1 (stereo not given)
Second: COc1ccc(-c2cc(=O)n(Cc3ccc(Cl)c(Cl)c3)nc2-c2ccc(OC)cc2)cc1
The melting point of the first is lower: 62 to 67 °C for the first, 108 to 110 °C for the second.

Compared with `CS(=O)(=O)c1ccc(-c2cc(C(=O)CO[N+](=O)[O-])nn2-c2ccccn2)cc1`, `CS(=O)(=O)c1ccc(-c2cnn(-c3cccc(Cl)c3)c(=O)c2C2CCCCC2)cc1` is higher in melting point: 82 to 84 °C for the first, 85 to 90 °C for the second.

First: O=C1Nc2ccccc2SC1CCCO (stereo not given)
Second: Nc1nc2ccccc2c2sc(CO)nc12
The melting point of the first is lower: 59 to 60 °C for the first, 247 to 249 °C for the second.

First: CCOC(=O)c1cc(CC(C(=O)OCC)C(=O)OCC)c2ccccn2c1=O
Second: CCOC(=O)C1=C(N)NC(CF)=C(C(=O)OCC)C1c1cccc([N+](=O)[O-])c1 (stereo not given)
The melting point of the first is lower: 105 to 108 °C for the first, 177 to 178 °C for the second.

First: Cc1oc(-c2ccccc2)nc1COc1ccc(COc2ccc(Cl)cc2CC(=O)O)cc1
Second: CC(c1ccc(C(=O)O)cc1)N(C)c1ccc(Br)cc1OCc1ccccc1 (stereo not given)
The melting point of the first is lower: 160 to 161 °C for the first, 182 °C for the second.

Compared with `Cc1cc(C)n(-c2cc(F)c(C#N)cc2F)n1`, `O=c1cc(C(F)(F)F)[nH]c(=O)n1-c1ccc(F)c(F)c1F` is higher in melting point: 122 °C for the first, 137 to 138 °C for the second.

First: Cc1cc(Oc2ccc([N+](=O)[O-])cc2)n[nH]1
Second: O=C(Oc1ccc([N+](=O)[O-])cc1)c1ccnc(F)c1
The melting point of the first is lower: 124 to 125 °C for the first, 148 to 150 °C for the second.

First: CC(C)(CON=Cc1ccccc1Cl)C(=O)O
Second: CCOC(=O)C1Cc2ccccc2N1C(=O)C(C)Br (stereo not given)
The melting point of the first is lower: 78 to 80 °C for the first, 101 to 103 °C for the second.

First: CCN(CC)CC1CCCCN1CCCNC(=O)N1c2ccccc2NC(=O)c2ccccc21 (stereo not given)
Second: Cc1ccc2ccc(N3C(=O)c4ccccc4C3OC(=O)CCCC(C)C)nc2n1 (stereo not given)
The melting point of the first is higher: 148 to 150 °C for the first, 144 °C for the second.

First: C[C@H]1C[C@@](O)(c2csc(S(=O)(=O)c3ccc4c(c3)CCC(=O)N4C)c2)CCO1
Second: Cn1ccc(OC2c3cc(C#N)ccc3OC(C)(C)C2O)cc1=O (stereo not given)
The melting point of the first is lower: 64 to 66 °C for the first, 202 to 203 °C for the second.

First: COCC#Cc1cc(F)c2ncc(C(=O)NCc3ccc(Cl)cc3)c(O)c2c1
Second: COc1ccc(C(=O)Nc2nc3ccc(N)cc3c(NCc3ccccc3)c2C#N)cc1
The melting point of the first is lower: 222 to 224 °C for the first, 228 to 230 °C for the second.

First: CN(C)Cc1ccccc1Oc1cccc(CC(=O)O)c1
Second: O=C1CCn2c(CCc3ccccc3)nc3cccc1c32
The melting point of the first is higher: 205 to 208 °C for the first, 112 to 113 °C for the second.

First: C[C@@]1(c2ccccc2)OC(c2ccccc2)=NC[C@H]1OC(=O)Nc1ccccc1 (racemic)
Second: CCOC(Nc1ccccc1)(OCC)C1(Cl)C=CN=C(C(=O)c2ccccc2)C1 (stereo not given)
The melting point of the first is higher: 180 °C for the first, 133 to 134 °C for the second.

Compared with `COc1cc2c(cc1Nc1ncc(Cl)c(Nc3ccccc3S(=O)(=O)N(C)C)n1)CCN(CCCN1CCOCC1)C(=O)C2`, `COc1cc(Nc2c(C#N)cnc3cc(-c4ccc(CN5CCN(CCO)CC5)cc4)sc23)c(Cl)cc1Cl` is higher in melting point: 78 to 87 °C for the first, 189 to 190 °C for the second.

First: COc1ccc(C2=NN(Cc3ccccc3C(F)(F)F)C(=O)[C@H]3CCCC[C@@H]23)cc1OC (relative stereo)
Second: CCOC(=O)CSc1nc(Nc2ccc(OC)c(Cl)c2)cc(-c2ccccc2)n1
The melting point of the first is lower: 87 to 88 °C for the first, 155 °C for the second.

Compared with `O=C(NCCCNS(=O)(=O)c1ccc(Oc2ccccc2)cc1)P(=O)(O)O`, `O=C(O)c1cc2cc(OCCNC[C@H](O)COc3ccccc3)ccc2s1` is higher in melting point: 165 to 168 °C for the first, 261 to 262 °C for the second.

First: CC(C)(C)n1cc(-c2ccc(S(=O)c3ccccc3)cc2)c2c(N)ncnc21 (stereo not given)
Second: CCS(=O)c1ccc(-c2coc3ccc(-c4nnc(C)o4)cc23)cc1 (stereo not given)
The melting point of the first is higher: 180 to 182 °C for the first, 156 to 157 °C for the second.

Compared with `COc1cc(Cn2cc3c(CC(C)C)nn(C)c(=O)c3c2)cc(OC)c1OC`, `COc1cc(CCCN(C)Cc2ccc(OC)c(OC)c2)ccc1NC(=O)c1cccc2c(=O)c3cccc(F)c3[nH]c12` is higher in melting point: 154 to 155 °C for the first, 170 to 190 °C for the second.

Compared with `CN1CCC(Oc2cc3ccccc3cc2C(N)=O)C1` (stereo not given), `CCOc1cc2c(cc1OCC)C1CN(C)CCC1N=C2c1ccc(C#N)cc1` (single isomer, unassigned; (-)) is higher in melting point: 128 to 130 °C for the first, 141 °C for the second.

First: Clc1ccc(C2(CBr)OCC(c3ccccc3)O2)cc1 (stereo not given)
Second: O=c1c2ccccc2[nH]n1CC#Cc1ccccc1
The melting point of the first is lower: 60 °C for the first, 151 to 154 °C for the second.

Compared with `Fc1cc(N2CCN(C3CCN(c4cccc5cccnc45)CC3)CC2)c2ncccc2c1`, `Cc1ccccc1C(=O)Nc1ccc(C(=O)N2Cc3ccnn3Cc3ccccc32)cc1` is lower in melting point: 211 °C for the first, 142 to 146 °C for the second.

Compared with `O=C(Nc1ccc(-n2nc(C(F)(F)F)cc2C(F)(F)F)cc1)c1cccc(F)c1F`, `Cc1ccc(Oc2ccccc2C(=O)O)c(NS(=O)(=O)c2cc(C(F)(F)F)cc(C(F)(F)F)c2)c1` is higher in melting point: 147 to 149 °C for the first, 165 to 166 °C for the second.

First: COc1ccc2c(c1)Sc1cc([N+](=O)[O-])ccc1N2C(C)=O
Second: CC(C(=O)O)c1ccc2c(c1)C(=O)Cc1cc(N)ccc1S2 (stereo not given)
The melting point of the first is lower: 156 to 157 °C for the first, 189 to 191 °C for the second.

First: O=C(Nc1ncc(C(=O)NCCO)s1)c1cn(Cc2ccc(Cl)c(Cl)c2)nn1
Second: CC(=O)Nc1ccc(/C=C/C(=O)NC/C=C(/C)c2ccc(C)c(CO)c2C)cn1
The melting point of the first is higher: 275 °C for the first, 160 to 165 °C for the second.

First: CCC(=O)C(CCCCCCCOc1ccc(OCc2ccccc2)cc1)C(=O)CC
Second: COc1ccc2cc(CCCOCCCCCCNCC(O)c3cc(Cl)c(N)c(Cl)c3)ccc2c1 (stereo not given)
The melting point of the first is lower: 54 to 55 °C for the first, 102 to 104 °C for the second.

First: Cc1cc([N+](=O)[O-])cnc1CCC#N
Second: Cc1nc2c(C=O)cccn2c1[N+](=O)[O-]
The melting point of the first is lower: 73 to 74 °C for the first, 182 to 184 °C for the second.

First: CCOC(=O)/C(=N\OCC(=O)N1CCCCCC1)c1csc(N)n1
Second: CN1CCN(C2(CNC=O)CCCCC2)CC1
The melting point of the first is higher: 163 to 164 °C for the first, 97 to 98 °C for the second.

Compared with `Cc1cc(-c2nnn[nH]2)cc2c(=O)c3cccnc3oc12`, `C[C@H](O)c1nnc(-c2ccc3occ(-c4cc(F)ccc4Cl)c3c2)o1` is lower in melting point: 290 to 291 °C for the first, 204 to 205 °C for the second.

Compared with `O=C(O)Cc1cc(C2CC2)ccc1Nc1ccc(-c2ccc(F)cc2)cc1F`, `CC1(c2ccccc2)Cc2cc(CC(=O)O)c(Cl)c(Cl)c2C1=O` (stereo not given) is lower in melting point: 182 to 183 °C for the first, 133 to 135 °C for the second.

First: COC(c1nccs1)(c1nccs1)C(F)(F)F
Second: CC(=NNC(=O)c1ccc(C(F)(F)F)cc1)c1ccncc1
The melting point of the first is lower: 40 to 41 °C for the first, 198 °C for the second.

Compared with `Cc1cc(C)c2c(c1)NC(C)C2` (stereo not given), `CON=C(c1cnco1)c1ccccc1COc1cc(C)ccc1C` is higher in melting point: 75 °C for the first, 90 to 91 °C for the second.

First: NS(=O)(=O)c1cccnc1N1CCSCC1
Second: CC(C)(C)c1cc(-c2csc(CN3CCSCC3)n2)cc(C(C)(C)C)c1O
The melting point of the first is higher: 176 to 177 °C for the first, 153 to 155 °C for the second.

First: CCCCCCc1cc2c(s1)-n1c(C)nnc1CN=C2c1ccc(OC)cc1
Second: CCCCCCCCCCCCCCCCCNC(=O)Oc1cccc([N+](=O)[O-])c1
The melting point of the first is higher: 97 to 99 °C for the first, 66 to 73 °C for the second.

Compared with `N#Cc1cccc(N2CCc3cc(Cl)ccc32)c1`, `c1cc(Nc2nnc3c4c(cccc24)-c2ccccc2-3)cc(-n2ccnc2)c1` is higher in melting point: 120 to 121 °C for the first, 223 to 226 °C for the second.

First: COC(=O)c1cc2c(c(OC)c1Br)OCO2
Second: CN(C)C(=O)c1ccc(C2CCC(=O)CC2)cc1
The melting point of the first is lower: 85.5 to 86 °C for the first, 118 °C for the second.

First: CC(CSC(C)C(=O)O)C(=O)O (stereo not given)
Second: C=Cc1ccc(CSCCOC(=O)COCC(=O)O)cc1
The melting point of the first is higher: 78 to 80 °C for the first, 63 to 68 °C for the second.

First: CC(C)Nc1cncc(C#N)c1
Second: COc1c(OC)c(OC)c2c(=O)cc(-c3ccc(OCc4ccccc4)c(OCc4ccccc4)c3)oc2c1OC
The melting point of the first is lower: 82 °C for the first, 157 to 158 °C for the second.
